Consider 5 compounds from patent US12280072B2, “Oligosaccharide compound for inhibiting intrinsic coagulation factor X-enzyme complex, and preparation method therefor and uses thereof” (Jiuzhitang Co., Ltd., priority 2017, dated 2025).

pIC50: −log10 of the molar value. Where two headings read alike, the source gives them in different places.

Common to all, as to format: biochemical
Assay [1] deals with human-controlled plasma. Put plainly: Anticoagulant activity assay: APTT clotting time. How it is done:
(§1) 8.2 Methods • (1) Preparation of sample solution: Oligosaccharide compounds A1˜A8, B1˜B11 and oligosaccharide mixtures C1, D1, D2 were all dissolved in Tris-HCl buffer and diluted to the desired series of solubility. • (2) Anticoagulant activity assay: 90 μL of human-controlled plasma was added to the sample or 10 μL of the control solution, and then the clotting time (APTT and PT) was detected by the MC-4000 coagulometer according to the method described in the APTT and PT kit instructions. • (3) Coagulation factor inhibitory activity analysis: […]

In assay [2] the test system is plasma. Put plainly: TT (thrombin time) clotting time.
Assay [3] concerns the target T1, FXa (Homo sapiens).
T1 construct: 8 μg/mL FXa solution; purchased
As to the kind of experiment: AT-dependent Xa inhibitory activity assay. As to the method: AT-dependent Xa inhibitory activity assay: Heparin […] kit was used for detection. To a 96-well plate, 30 μL of sample, control solution or Tris-HCl buffer (negative control) was added, then 30 μL of 1 IU/mL AT solution was added, mixed well and incubated at 37° C. for 1 min; and than 30 μL of 8 μg/mL FXa solution was added, mixed well and incubated at 37° C. for 1 min, then 30 μL of pre-warmed 1.25 mM Xa chromogenic substrate SXa-11 was added. OD405 was detected by a microplate reader.
(§2) Data processing: The average value of OD405 detected by the duplicated well was used as the detection value of the test sample and the reference of each concentration, and the slope of the linear fit between the detected value to the time value (the change rate of the absorbance value OD405/min) indicated enzymatic activity of coagulation factor. Taking the clotting factor activity of the negative control well as 100%, coagulation factor activity (percentage) in the presence of the test sample was calculated. The coagulation factor activity in the presence of the test sample was plotted against the concentration of the test sample, and fitted according to the following formula, to calculate the IC50 value: B=(IC50)^n/{(IC50)^n+[I]^n}
(§3) in the formula, B is the coagulation factor activity (percentage) in the presence of the test sample, [I] is the concentration of the test sample, IC50 is the half inhibitory concentration (concentration of the test sample required to inhibit 50% of the activity), and n is the Hill coefficient. • (4) Effect on surface activation and platelet activity: […]

In assay [4] the test system is human-controlled plasma. Put plainly: Anticoagulant activity assay: PT clotting time. As to the method:
as §1

The target of assay [5] is T2, FIIa (Homo sapiens).
T2 construct: antithrombin (i.e., active coagulation factor IIa); purchased
As to the kind of experiment: AT-dependent IIa inhibitory activity assay. How it is done: AT-dependent IIa inhibitory activity assay: Heparin Anti-FIIa kit was used for detection. To a 96-well plate, 30 μL of sample, control solution or Tris-HCl buffer (negative control) was added, and then 30 μL of 1 IU/mL AT solution was added, mixed well by shaking the plate and incubated at 37° C. for 2 min; 30 μL of 24 IU/mL FIIa solution was added, mixed well by shaking the plate and incubated for 2 min at 37° C., and then 30 μL of pre-warmed 1.25 mM FIIa specific chromogenic substrate CS-01 (38) was added, mixed well by shaking the plate. The OD405 was detected by a microplate reader and the IC50 value of FIIa inhibition of each sample was calculated.
as §2, §3

Assay [6] has as its target T3, intrinsic factor Xase (Homo sapiens, UniProt P00740).
T3 construct: 60 nM FIXa; purchased
As to the kind of experiment: Xase inhibitory activity assay. The note with it: for IC50: read-out: Drug concentration required to inhibit 50% of coagulation factor activity (IC50, ng/mL) Xase (converted); for pIC50: read-out: Drug concentration required to inhibit 50% of coagulation factor activity (IC50, ng/mL) Xase. As to the method:
Xase inhibitory activity assay: Detection was performed according to kit instructions and literature methods by combining the Factor VIII and […]. Specifically, to each well of a 96-well plate, 30 μL of test solution, control solution, or Tris-HCl buffer (negative control) was added, and 30 μl of FVIII (2 IU/ml), 30 μl of R2 (60 nM FIXa, containing FIIa, PC/PS, Ca^2+) were sequentially added, mixed by shaking the plate, incubated at 37° C. for 2 min; and then 30 μL of R1 (50 nM FX, containing direct thrombin inhibitor) was added, mixed by shaking the plate, incubated at 37° C. for 1 min; and then 30 μL of R3 (FXa chromogenic substrate SXa-11, about 8.4 mM) was added. The absorbance at 405 nm (OD405) was detected with a microplate reader, continuously measuring for 7.5 min at a interval of 30 s. The Xase activity and IC50 value of Xase inhibition of the test sample were calculated based on the OD405 change value.
as §2, §3

Setting [7] is: in presence of AT; read-out: Drug concentration required to inhibit 50% of coagulation factor activity (IC50, ng/mL) Xa (AT).
[8] abbreviates: in presence of AT; read-out: Drug concentration required to inhibit 50% of coagulation factor activity (IC50, ng/mL) Ha (AT).
Where [9] appears, read: read-out: Drug concentration required to inhibit 50% of coagulation factor activity (IC50, ng/mL) Xa (AT); in presence of AT.
[10] abbreviates: read-out: Drug concentration required to inhibit 50% of coagulation factor activity (IC50, ng/mL) Ha (AT); in presence of AT.

T1 sequence (P01008 33-464): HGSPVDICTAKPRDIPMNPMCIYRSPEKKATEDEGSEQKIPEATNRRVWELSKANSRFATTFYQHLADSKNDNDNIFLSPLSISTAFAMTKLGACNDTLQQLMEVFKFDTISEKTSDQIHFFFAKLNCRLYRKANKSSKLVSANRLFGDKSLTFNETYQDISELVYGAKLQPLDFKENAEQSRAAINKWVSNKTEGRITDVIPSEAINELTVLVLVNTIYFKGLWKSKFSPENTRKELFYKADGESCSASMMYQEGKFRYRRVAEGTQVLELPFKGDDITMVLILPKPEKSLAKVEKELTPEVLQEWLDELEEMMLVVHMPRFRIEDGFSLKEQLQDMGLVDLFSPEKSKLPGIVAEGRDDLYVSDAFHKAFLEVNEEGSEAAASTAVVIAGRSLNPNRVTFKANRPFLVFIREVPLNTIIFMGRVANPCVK
T2 sequence (P01008 33-464): as above
T3 sequence (P00740 47-191 limits assumed): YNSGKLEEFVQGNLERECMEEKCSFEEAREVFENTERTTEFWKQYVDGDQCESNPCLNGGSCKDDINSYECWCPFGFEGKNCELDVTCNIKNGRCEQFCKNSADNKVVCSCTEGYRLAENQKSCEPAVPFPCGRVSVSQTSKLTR
T3 sequence (P00740 227-461 limits assumed): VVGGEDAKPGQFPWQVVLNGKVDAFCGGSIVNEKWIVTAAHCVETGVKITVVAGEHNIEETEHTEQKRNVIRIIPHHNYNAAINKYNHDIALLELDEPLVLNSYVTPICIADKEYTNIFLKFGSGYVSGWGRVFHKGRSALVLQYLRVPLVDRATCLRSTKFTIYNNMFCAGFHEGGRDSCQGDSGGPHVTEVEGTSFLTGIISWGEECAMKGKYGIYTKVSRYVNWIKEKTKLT

As for `CC(=O)NC1C(OC2C(C(=O)O)OC(OC3C(NC(C)=O)C(OC(C(O)C(=O)O)C(OC4OC(C)C(OS(=O)(=O)O)C(OS(=O)(=O)O)C4O)C(O)CO)OC(COS(=O)(=O)O)C3OS(=O)(=O)O)C(O)C2OC2OC(C)C(OS(=O)(=O)O)C(OS(=O)(=O)O)C2O)OC(COS(=O)(=O)O)C(OS(=O)(=O)O)C1OC1OC(C(=O)O)=CC(OC2OC(C)C(OS(=O)(=O)O)C(OS(=O)(=O)O)C2O)C1O` [Compound B2, L-Fuc3S4S-(α1,3)-L-ΔUA-(α1,3)-{D-GalNAc4S6S-(β1,4)-[L-Fuc3S4S-(α1,3)]-D-GlcA-(β1,3)}˜-D-GalNAc4S6S-(β1,4)-[L-Fuc3S4S-(α1,3)]-D-GlcA-ol], the “Drug concentration required for multiplication of coagulation time (μg/mL) APTT” value (shortened to “Drug concentration required … (μg/mL) APTT”) in assay [1] is 7.5 µg/mL. Besides, the “Drug concentration required for multiplication of coagulation time (μg/mL) TT” value (from here on “Drug concentration required … (μg/mL) TT”) in assay [2] is “# (>128 μg/mL)”. In addition, the pIC50 in assay [3] (setting [7]) and in assay [5] (setting [8]) was < 5.64 in each case. Moreover, the “Drug concentration required for multiplication of coagulation time (μg/mL) PT” value (shortened to “Drug concentration required … (μg/mL) PT”) in assay [4] is reported as “# (>128 μg/mL)”. The IC50 in assay [6] was 29.5 nM.
Take `CC(=O)NC1C(OC2C(C(=O)O)OC(OC3C(NC(C)=O)C(OC4C(C(=O)O)OC(OC5C(NC(C)=O)C(OC(C(O)C(=O)O)C(OC6OC(C)C(OS(=O)(=O)O)C(OS(=O)(=O)O)C6O)C(O)CO)OC(COS(=O)(=O)O)C5OS(=O)(=O)O)C(O)C4OC4OC(C)C(OS(=O)(=O)O)C(OS(=O)(=O)O)C4O)OC(COS(=O)(=O)O)C3OS(=O)(=O)O)C(O)C2OC2OC(C)C(OS(=O)(=O)O)C(OS(=O)(=O)O)C2O)OC(COS(=O)(=O)O)C(OS(=O)(=O)O)C1OC1OC(C(=O)O)=CC(OC2OC(C)C(OS(=O)(=O)O)C(OS(=O)(=O)O)C2O)C1O` [Compound B3, L-Fuc3S4S-(α1,3)-L-ΔUA-(α1,3)-{D-GalNAc4S6S-(β1,4)-[L-Fuc3S4S-(α1,3)]-D-GlcA-(β1,3)}˜-D-GalNAc4S6S-(β1,4)-[L-Fuc3S4S-(α1,3)]-D-GlcA-ol]: the “Drug concentration required … (μg/mL) APTT” value in assay [1] came out at 6.1 µg/mL. Besides, the “Drug concentration required … (μg/mL) TT” value in assay [2] was “# (>128 μg/mL)”. In addition, the pIC50 in assay [3] (setting [7]) and in assay [5] (setting [8]) was < 5.78 in each case. For the same compound, the “Drug concentration required … (μg/mL) PT” value in assay [4] is “# (>128 μg/mL)”. Besides, the IC50 in assay [6] was 10.3 nM.
Turning to `CC(=O)NC1C(OC2C(C(=O)O)OC(OC3C(NC(C)=O)C(OC4C(C(=O)O)OC(OC5C(NC(C)=O)C(OC6C(C(=O)O)OC(OC7C(NC(C)=O)C(OC(C(O)C(=O)O)C(OC8OC(C)C(OS(=O)(=O)O)C(OS(=O)(=O)O)C8O)C(O)CO)OC(COS(=O)(=O)O)C7OS(=O)(=O)O)C(O)C6OC6OC(C)C(OS(=O)(=O)O)C(OS(=O)(=O)O)C6O)OC(COS(=O)(=O)O)C5OS(=O)(=O)O)C(O)C4OC4OC(C)C(OS(=O)(=O)O)C(OS(=O)(=O)O)C4O)OC(COS(=O)(=O)O)C3OS(=O)(=O)O)C(O)C2OC2OC(C)C(OS(=O)(=O)O)C(OS(=O)(=O)O)C2O)OC(COS(=O)(=O)O)C(OS(=O)(=O)O)C1OC1OC(C(=O)O)=CC(OC2OC(C)C(OS(=O)(=O)O)C(OS(=O)(=O)O)C2O)C1O` [Compound B4, L-Fuc3S4S-(α1,3)-L-ΔUA-(α1,3)-{D-GalNAc4S6S-(β1,4)-[L-Fuc3S4S-(α1,3)]-D-GlcA-(β1,3)}˜-D-GalNAc4S6S-(β1,4)-[L-Fuc3S4S-(α1,3)]-D-GlcA-ol], in assay [1], the “Drug concentration required … (μg/mL) APTT” value worked out at 4.5 µg/mL. Besides, the “Drug concentration required … (μg/mL) TT” value in assay [2] was “# (>128 μg/mL)”. The pIC50 in assay [3] (setting [9]) was < 5.89; in assay [5] (setting [10]), < 5.89; in assay [6], 8.27. Also, in assay [4], the “Drug concentration required … (μg/mL) PT” value is given as “# (>128 μg/mL)”.
With `CC(=O)NC1C(OC2C(C(=O)O)OC(OC3C(NC(C)=O)C(OC4C(C(=O)O)OC(OC5C(NC(C)=O)C(OC6C(C(=O)O)OC(OC7C(NC(C)=O)C(OC8C(C(=O)O)OC(OC9C(NC(C)=O)C(OC(C(O)C(=O)O)C(OC%10OC(C)C(OS(=O)(=O)O)C(OS(=O)(=O)O)C%10O)C(O)CO)OC(COS(=O)(=O)O)C9OS(=O)(=O)O)C(O)C8OC8OC(C)C(OS(=O)(=O)O)C(OS(=O)(=O)O)C8O)OC(COS(=O)(=O)O)C7OS(=O)(=O)O)C(O)C6OC6OC(C)C(OS(=O)(=O)O)C(OS(=O)(=O)O)C6O)OC(COS(=O)(=O)O)C5OS(=O)(=O)O)C(O)C4OC4OC(C)C(OS(=O)(=O)O)C(OS(=O)(=O)O)C4O)OC(COS(=O)(=O)O)C3OS(=O)(=O)O)C(O)C2OC2OC(C)C(OS(=O)(=O)O)C(OS(=O)(=O)O)C2O)OC(COS(=O)(=O)O)C(OS(=O)(=O)O)C1OC1OC(C(=O)O)=CC(OC2OC(C)C(OS(=O)(=O)O)C(OS(=O)(=O)O)C2O)C1O` [Compound B5, L-Fuc3S4S-(α1,3)-L-ΔUA-(α1,3)-{D-GalNAc4S6S-(β1,4)-[L-Fuc3S4S-(α1,3)]-D-GlcA-(β1,3)}˜-D-GalNAc4S6S-(β1,4)-[L-Fuc3S4S-(α1,3)]-D-GlcA-ol], the “Drug concentration required … (μg/mL) APTT” value in assay [1] came out at 4.0 µg/mL. The “Drug concentration required … (μg/mL) TT” value in assay [2] was “# (>128 μg/mL)”. The pIC50 was < 5.97 in assay [3] (setting [9]), < 5.97 in assay [5] (setting [10]) and 8.38 in assay [6]. Further, in assay [4], the “Drug concentration required … (μg/mL) PT” value is recorded as “# (>128 μg/mL)”.
As to `CC(=O)NC1C(OC2C(C(=O)O)OC(OC3C(NC(C)=O)C(OC4C(C(=O)O)OC(O)C(O)C4OC4OC(C)C(OS(=O)(=O)O)C(OS(=O)(=O)O)C4O)OC(COS(=O)(=O)O)C3OS(=O)(=O)O)C(O)C2OC2OC(C)C(OS(=O)(=O)O)C(OS(=O)(=O)O)C2O)OC(COS(=O)(=O)O)C(OS(=O)(=O)O)C1OC1OC(C(=O)O)=CC(OC2OC(C)C(OS(=O)(=O)O)C(OS(=O)(=O)O)C2O)C1O` [Compound B7, L-Fuc3S4S-(α1,3)-L-ΔUA-(α1,3)-{D-GaNAc4S6S-(β1,4)-[L-Fuc3S4S-(α1,3)]-D-GlcA-(β1,4)}˜-D-GalNAc4S6S-(β1,4)-[L-Fuc3S4S-(α1,3)]-D-GlcA], the “Drug concentration required … (μg/mL) APTT” value in assay [1] was determined as 7.3 µg/mL. For the same compound, the “Drug concentration required … (μg/mL) TT” value in assay [2] is “# (>128 μg/mL)”. Moreover, the pIC50 in assay [3] (setting [7]) and in assay [5] (setting [8]) was < 5.64 in each case. Further, in assay [4], the “Drug concentration required … (μg/mL) PT” value is “# (>128 μg/mL)”. In addition, the IC50 in assay [6] was 26.8 nM.
